The source of these data is patent US6479054B1, “Process for obtaining genistin-rich isoflavone composition” (Showa Sangyo Co., Ltd., priority 1998, dated 2002).

A short description of the data set: Solubility of genistin in isoflavone containing eluate as a function of pH (FIG. 1). The data set is classed as physicochemical. The text has this:
Concentrations of isoflavones in a supernatant are shown, making each isoflavone concentration at the time of elution 100.).

For the compound `O=c1c(-c2ccc(O)cc2)coc2cc(O[C@@H]3O[C@H](CO)[C@@H](O)[C@H](O)[C@H]3O)cc(O)c12` [genistin], the “solubility of genistin in an isoflavone containing eluate” value is, setting by setting: (pHs of not less than 10) “extremely high”; (pHs of not more than 9.5) “extremely low”.
